Data: patent publication US8338663B2 (priority 2001, dated 2012)

Tests used:
Phytophthora infestans [1] = type: cell-based; settings: for inhibition of mycelium growth: 2% and 0.2% (v/v) in Plich medium, isolate VK98014, day 3, 5 and 7; for effect on mycelium growth at the lowest concentration: 0.002% (=20 ppm) in Plich medium, isolate VK98014, day 3 and 5; for effect on mycelium growth through the vapour phase: 0.2% added to the medium in the adjacent wells, isolate VK98014
[2] = target: T1, H64NORS linalool/nerolidol synthase, cultivated strawberry, recombinant his-tag purified, no targeting signal, SEQ ID NO: 19 (Fragaria x ananassa, UniProt P0CV94); assay: Kinetic characterisation of the his-tag purified H64NORS-encoded protein; type: biochemical, cultivated strawberry (Fragaria×ananassa Duch. cv. Elsanta); settings: read-out: Km for GPP
T1 sequence (P0CV94 1-519): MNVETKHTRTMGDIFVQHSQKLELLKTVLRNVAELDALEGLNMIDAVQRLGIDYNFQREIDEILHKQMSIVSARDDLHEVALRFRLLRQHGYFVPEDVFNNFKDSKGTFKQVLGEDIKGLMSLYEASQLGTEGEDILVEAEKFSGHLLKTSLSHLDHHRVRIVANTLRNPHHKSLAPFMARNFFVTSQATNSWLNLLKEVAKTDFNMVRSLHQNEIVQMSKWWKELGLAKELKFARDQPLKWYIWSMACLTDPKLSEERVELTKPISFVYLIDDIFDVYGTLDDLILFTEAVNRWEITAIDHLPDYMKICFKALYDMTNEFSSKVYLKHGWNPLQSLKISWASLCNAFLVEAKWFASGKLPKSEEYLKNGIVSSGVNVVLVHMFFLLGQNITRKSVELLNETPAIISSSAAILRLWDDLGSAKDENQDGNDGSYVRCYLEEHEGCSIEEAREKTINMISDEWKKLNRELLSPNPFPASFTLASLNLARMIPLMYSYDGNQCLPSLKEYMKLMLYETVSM
Method: The pRSETB vector harboring the H64MUT or H64NORS was used to transform E. coli strain BL21 Gold DE3 pLysE (Stratagene) as described by the manufacturer. For bacterial expression typically 1 ml of overnight liquid culture grown at 37° C. in Luria Broth (LB) medium (10 g/l tryptone, 5 g/l yeast extract, 5 g/l NaCl) supplemented with 100 mg/l ampicillin was diluted 50 times in the same medium and grown until the OD600 reached 0.4 (at 37° C.). At this stage IPTG was added to a final concentration of 1 mM in order to induce expression. After overnight growth at 16° C. the cells were harvested by centrifugation at 4000×g for 15 min. […] The cells were further processed as described by the Ni-NTA Spin Columns manufacturers (QIAGEN) for protein purification under native conditions. First elute from the column (200 μl) was further used for enzymatic activity assays.
For determination of terpene synthase identity, the His-tag purified enzymes (prepared as described above under Example 4.6) were diluted 10-fold with buffer A containing 15 mM MOPSO (pH 7.0), 10% glycerol, 10 mM MgCl2, 1 mM sodium ascorbate and 2 mM DTT. […]
The samples were also analysed by GC-MS using a HP 5890 series II gas chromatograph equipped with an HP5-MS column (30 m×0.25 mm i.d., 0.25 μm df) and HP 5972A Mass Selective Detector (Hewlett-Packard). […]

[3] = test system: Fusarium verticillioides spores; assay: Spectrophotometric assay of Fusarium spore germination; type: cell-based; settings: 10^5 spores/ml in Czapek Dox medium, day 3
Method: A spectrophotometric assay was used to monitor the onset of germination of Fusarium verticillioides spores (isolates: ITEM2282, MRC3235, MRC826, MRC826-2) in solution. The spores were diluted to a concentration of 10^5 spores/ml in Czapek Dox medium and mixed with 8-4000 ppm of linalool or nerolidol.

[4] = test system: Phytophthora infestans (isolate VK98014); type: cell-based
[5] = test system: Botrytis cinerea isolated from grape and strawberry; assay: Effects of linalool and nerolidol on Botrytis mycelial growth; type: cell-based; settings: day 7
Method: Botrytis. Nerolidol and linalool were tested in a range of concentrations (10-5000 ppm) alone and in combination through the addition to Plich medium in 6 well plates (3 ml per well). In the case of comparing the application of nerolidol and linalool alone to the combination of the two compounds, 100 ppm of the single compound was for example compared to 50+50 ppm of the two compounds together. One 6 well plate per compound was used with two different concentrations in triplicate. All wells were inoculated with a mycelium plug of Botrytis cinerea isolated from grape and strawberry and incubated at 20° C. Each day the radial growth of the mycelium was measured. The mycelium growth of all Botrytis isolates was inhibited at concentrations above 10 ppm.

[6] = test system: Fusarium graminearum, Fusarium culmorum, F. verticillioides strain MRC826; type: cell-based, Fusarium spp.
[7] = test system: Phytophthora infestans (isolate VK98014); type: cell-based; settings: linalool versus farnesol
Phytophthora infestans [8] = type: in vivo; settings: cultivar Bintje, 0.05% (v/v) solution vacuum-infiltrated (ca. 0.0125% in leaves), 4 isolates, after 7 days
[9] = test system: Agrobacterium tumefaciens; assay: Transformation of Agrobacterium with H64NORS binary vector (nerolidol formed from endogenous FPP); type: cell-based; settings: inferred: no colonies obtained after transformation of 2 strains with H64NORS
[10] = substrate: CC(C)=CCC/C(C)=C/CC/C(C)=C/CO[P@@](=O)(O)OP(=O)(O)O; assay: purified protein, by the assay type; settings: pH 7.0

CC(C)=CCCC(C)=CCCC(C)=CCO [Farnesol, reference compound]
inhibition of mycelium growth (Phytophthora infestans [1]): partial inhibition

CC(C)=CCC/C(C)=C/COP(=O)(O)OP(=O)(O)O [GPP, geranyl diphosphate]
Km [2]: > 50 µM

C=CC(C)(O)CCC=C(C)C (stereo not shown) [linalool]
effect on germination of spores ([3]; 8-4000 ppm): did not affect the germination of the spores at all
Inhibition of mycelium growth at the lowest concentration ([4]; 0.002% (=20 ppm) in Plich medium, day 3 and 5): active even at the lowest concentration
Relative effectiveness at very high concentrations ([5]; linalool or the combination): most effective
effect on mycelium growth at the lowest concentration (Phytophthora infestans [1]): active
effect on mycelium growth through the vapour phase (Phytophthora infestans [1]): equally effective through the vapour phase as through the medium
inhibition of mycelium growth (Phytophthora infestans [1]): inhibited completely
Relative effectiveness at very high concentrations ([6]; nerolidol versus linalool, day 7): more effective
Relative activity, inhibition of mycelium growth [7]: more active than farnesol

C=CC(C)(O)CCC=C(C)CCC=C(C)C (stereo not shown) [nerolidol]
concentrations showing strong inhibition of germination ([3]; 8-4000 ppm tested): above 250 ppm
Relative effectiveness, inhibition of mycelium growth ([4]; nerolidol versus linalool): slightly more effective than linalool
Relative effectiveness at low concentrations ([5]; nerolidol versus linalool): more effective than linalool
effect on mycelium growth, lesion formation and sporulation in infiltrated potato leaves (Phytophthora infestans [8]): strongly inhibits mycelium growth, lesion formation and sporulation
effect on mycelium growth at the lowest concentration (Phytophthora infestans [1]): strong inhibitor of mycelium growth
effect on mycelium growth through the vapour phase (Phytophthora infestans [1]): negligible
toxicity to Agrobacterium cells [9]: highly toxic
Relative effectiveness at low concentrations ([6]; F. graminearum and MRC826, day 7): slightly more effective than linalool

B1: H64NORS linalool/nerolidol synthase, cultivated strawberry, recombinant his-tag purified, no targeting signal, SEQ ID NO: 19 (Fragaria x ananassa) (protein)
chain: MNVETKHTRTMGDIFVQHSQKLELLKTVLRNVAELDALEGLNMIDAVQRLGIDYNFQREIDEILHKQMSIVSARDDLHEVALRFRLLRQHGYFVPEDVFNNFKDSKGTFKQVLGEDIKGLMSLYEASQLGTEGEDILVEAEKFSGHLLKTSLSHLDHHRVRIVANTLRNPHHKSLAPFMARNFFVTSQATNSWLNLLKEVAKTDFNMVRSLHQNEIVQMSKWWKELGLAKELKFARDQPLKWYIWSMACLTDPKLSEERVELTKPISFVYLIDDIFDVYGTLDDLILFTEAVNRWEITAIDHLPDYMKICFKALYDMTNEFSSKVYLKHGWNPLQSLKISWASLCNAFLVEAKWFASGKLPKSEEYLKNGIVSSGVNVVLVHMFFLLGQNITRKSVELLNETPAIISSSAAILRLWDDLGSAKDENQDGNDGSYVRCYLEEHEGCSIEEAREKTINMISDEWKKLNRELLSPNPFPASFTLASLNLARMIPLMYSYDGNQCLPSLKEYMKLMLYETVSM
Km [10]: 3.2 µM
